Assay: gradient 5% acetonitrile 3 min, to 50% in 2 min, to 85% in 15 min, held 3 min, 100 µL/min
Settings: column: Zorbax Extend-C18 2.1 x 50 mm; eluents: water / acetonitrile, 0.1% formic acid
Outline: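 A Zorbax Extend-C18 column (2.1 × 50 mm, 1.8 μm) run at 100 μL/min with water and acetonitrile, both containing 0.1% formic acid, separated mixtures of ~100 pure standards. The HPLC was coupled to a quadrupole time-of-flight mass spectrometer operated in positive and negative ionization mode, with dead and dwell volumes of 40 μL and 900 μL. Each retention time was taken from a computationally picked adduct peak that was then manually inspected.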
O=C(CCC1CCCN(S(=O)(=O)c2cccc(F)c2)C1)NC1CCCCC1 (stereo not given) showed an RP-LC retention time of 936 s. With O=C(NC1CC1)c1ccc(-c2nc3cccnc3n(C3CCCC3)c2=O)cc1 the RP-LC retention time was 970 s. COC(=O)c1ccc(-c2nc3cnccn3c2Nc2ccc(OC)c(OC)c2)cc1 gave an RP-LC retention time of 769 s. With COc1ccc(CC(=O)N2CCC3(C2)C(=O)Nc2ccc(OC)cc23)cc1 (stereo not given) the RP-LC retention time was 709 s. CC(C)CC(=O)NC1CCN(c2ccc(F)cc2)C1=O (stereo not given) showed an RP-LC retention time of 742 s. For COc1ccc(OC)c(CN2CCCC(OCc3noc(-c4ccoc4)n3)C2)c1 (stereo not given), the RP-LC retention time was 702 s. Work on O=C([C@@H]1C[C@H](F)CN1C(=O)Cc1ccccc1F)N1CCCCC1 yielded an RP-LC retention time of 684 s. Compound C=CCN1C(=O)COc2ccc(-c3nc(NC(=O)c4cccc(C)c4)sc3C)cc21 has an RP-LC retention time of 1110 s. Compound Cc1c(Cl)cccc1NC(=O)Cn1cnc2c(sc3nc(-c4ccccc4)ccc32)c1=O has an RP-LC retention time of 1070 s. CCCNC(=O)CN1CCN(Cc2ccccc2)C1=O gave an RP-LC retention time of 675 s. COC(=O)c1cc(C)nc2c1c(=O)n(Cc1cccc(C)c1)c(=O)n2Cc1ccco1 showed an RP-LC retention time of 1170 s. In the case of CC(C)Cn1c(=O)c2cc(C(=O)Nc3ccc(N4CCOCC4)cc3)nn2c2ccccc21, the RP-LC retention time is reported as 953 s. In the case of Cc1ccc(-c2[nH]ncc2CN2C[C@@H]3CCN(S(C)(=O)=O)C[C@]3(CF)C2)cc1C, the RP-LC retention time is reported as 617 s. With COc1cc(Cl)ccc1C(=O)NCc1c(C)noc1C the RP-LC retention time was 810 s. With COc1ccc(CN(C)Cc2cc(=O)n3ccc(C)cc3n2)cc1 the RP-LC retention time was 608 s. Work on CCCn1ccc2sc(C)c(C(=O)NCCN3CCCCC3CC)c2c1=O (stereo not given) yielded an RP-LC retention time of 673 s. CCN(CC)C(=O)N1CC(c2nc(-c3ccncc3)nn2C)C1 showed an RP-LC retention time of 566 s. For COC(=O)C(Cc1ccccc1)NC(=O)C(NC(=O)OCc1ccccc1)C(C)C (stereo not given), the RP-LC retention time was 894 s. With CCN(Cc1ccccc1)C(=O)c1ncn2c1C(=O)N(CC)C(C)(C(=O)NC1CCCC1)C2 (stereo not given) the RP-LC retention time was 734 s. For C(=C\c1ccccc1)/CN1CCN(CCOC(c2ccccc2)c2ccccc2)CC1, the RP-LC retention time was 884 s. With CC(C)Oc1ccc(CN2CCC3(CC2)CN(C)CC3c2nnc(C(C)C)o2)cc1 (stereo not given) the RP-LC retention time was 577 s. In the case of CC(NC(=O)c1ccco1)c1nc(-c2ccc3ncn(C)c3c2)no1 (stereo not given), the RP-LC retention time is reported as 599 s. Compound CCC(=O)N(C1CCOCC1)C1CCN(S(=O)(=O)c2ccccc2CC)CC1 has an RP-LC retention time of 908 s. For COCCNc1nc(-c2ccc(OC)cc2)nc2ccccc12, the RP-LC retention time was 644 s. Work on O=C([C@@H]1C[C@H](F)CN1S(=O)(=O)c1ccc(Br)s1)N1CCCCC1 yielded an RP-LC retention time of 839 s. For CCn1nc(C)cc1C(=O)Nc1nc2c(s1)CC(C)CC2 (stereo not given), the RP-LC retention time was 935 s. With Cc1cc(C)cc(NC(=O)N2CCN(c3ccc(=O)n(-c4ccccc4)n3)CC2)c1 the RP-LC retention time was 832 s. For COc1ccccc1C(=O)NCCc1nc2cccnc2n1C(C)C, the RP-LC retention time was 718 s. Work on O=C(Nc1ccc(F)cc1F)N1CCN(Cc2nc3cc(-c4ccccc4)ccc3o2)CC1 yielded an RP-LC retention time of 869 s. For CCCN(C)c1nccn2c(=O)n(CC(=O)Nc3cccc(Br)c3)nc12, the RP-LC retention time was 730 s. Work on O=C(NCCN1CCOCC1)c1sc2cc(Cl)ccc2c1Cl yielded an RP-LC retention time of 590 s. With O=C(c1ccco1)N1CCN(C(=O)c2nnn3c2COC(c2ccccc2)C3)CC1 (stereo not given) the RP-LC retention time was 762 s. For Cc1ccc(-n2cccc2CC(=O)NC2CCCCC2)cc1, the RP-LC retention time was 1020 s. For CN1CCc2nnc(C3CCN(C(=O)Nc4cc(F)cc(F)c4)C3)n2CC1 (stereo not given), the RP-LC retention time was 593 s. In the case of O=c1ccc(-c2ccc3c(c2)OCO3)nn1CCc1nc(-c2ccccn2)no1, the RP-LC retention time is reported as 730 s. COc1ccc(N2C=C(C(=O)N3CCOCC3)S(=O)(=O)c3ccc(Cl)cc32)cc1 showed an RP-LC retention time of 770 s. Work on CCC(=O)N1CCc2c(C(=O)NC3CCCC3)cccc21 yielded an RP-LC retention time of 765 s. Compound O=C(Nc1nc(-c2ccc(Cl)c(Cl)c2)cs1)c1ccc(F)c(F)c1 has an RP-LC retention time of 1260 s. Cc1ccc(NC(=O)N2CCCC2c2nc(-c3ccccc3)no2)cc1 (stereo not given) gave an RP-LC retention time of 964 s. Compound CCN(CC)CCNC(=O)C1CCN(c2nnc3ccc(Cl)cn23)CC1 has an RP-LC retention time of 565 s. With O=S(=O)(Cc1ccccc1Cl)N1CCc2nc(-c3ccc(Cl)cc3)ncc2C1 the RP-LC retention time was 1220 s. CCc1ccc(Oc2cc(N3CCC(C(=O)N4CCN(c5ccccn5)CC4)CC3)ncn2)cc1 showed an RP-LC retention time of 689 s. Work on O=C(c1ccc(C(F)(F)F)cc1)N1CCC(n2c(-c3ccco3)nc3cccnc32)C1 (stereo not given) yielded an RP-LC retention time of 826 s. In the case of Cn1c(=O)c(N2CCC(NC(=O)Nc3ccccc3)CC2)nc2ccccc21, the RP-LC retention time is reported as 829 s. Work on CNC(=O)c1cc2n(n1)CCCN(Cc1ccc(C)cc1)C2=O yielded an RP-LC retention time of 699 s. With CCc1ccc(NC(=O)N2CCc3nc[nH]c3C2)cc1 the RP-LC retention time was 612 s. Work on CCOC(=O)C1=C(CN(CC)CC)N(C)C(=O)NC1c1ccccc1 (stereo not given) yielded an RP-LC retention time of 618 s. Work on COc1ccc(NC(=O)C2=C(C)C(=O)OC23CCCCCC3)cc1OC yielded an RP-LC retention time of 887 s. Cc1cc(C)c(NS(=O)(=O)c2c(C)cc(C)cc2C)c(C)c1 gave an RP-LC retention time of 1120 s. For CC1=C(c2ccc(C)cc2)S(=O)(=O)N=C1N1CCC(NC(=O)c2ccoc2)CC1, the RP-LC retention time was 805 s. Work on O=C(CNS(=O)(=O)Cc1ccccc1)N1CCOC(c2ccccc2)C1 (stereo not given) yielded an RP-LC retention time of 784 s. O=C(NCCN1CCOCC1)C1CCc2sc(C(=O)N3CCOCC3)cc2C1 (stereo not given) gave an RP-LC retention time of 561 s. COc1ccc(S(=O)(=O)NCc2ccc3c(c2)CCN3C(=O)CC(C)C)cc1OC gave an RP-LC retention time of 858 s. Nc1cc(-c2cccc(F)c2)[nH]n1 showed an RP-LC retention time of 608 s. For CC(C)Cn1c(=O)c(N2CCN(C(=O)c3nccc4ccccc34)CC2)nc2ccncc21, the RP-LC retention time was 646 s. For COc1ccc(-c2nc(Cn3cnc4ccccc4c3=O)no2)cc1OC, the RP-LC retention time was 765 s. In the case of O=C(c1ccc(F)cc1F)N1CCN(c2ccc3nncn3n2)CC1, the RP-LC retention time is reported as 601 s. With O=C(Cn1cccc1-c1nnc(-c2ccccc2)o1)NCc1ccc2c(c1)OCO2 the RP-LC retention time was 860 s. For Cn1c(=O)c2nc(S(=O)(=O)CCC(=O)Nc3ccc(F)c(Cl)c3)n(C)c2n(C)c1=O, the RP-LC retention time was 756 s. Compound COc1ccc(CC(=O)N2CCc3cc(-c4ccno4)ccc32)cc1 has an RP-LC retention time of 909 s. For O=C(NC1CCN(Cc2ccccc2)CC1)C1CCCN(c2cnc3nccnc3c2)C1 (stereo not given), the RP-LC retention time was 907 s. Compound O=C(O)c1ccc2c(c1)n(Cc1cccc(F)c1)c(=O)c1ccnn12 has an RP-LC retention time of 784 s. In the case of COc1ncc(C(=O)N2CCCCC2)cn1, the RP-LC retention time is reported as 628 s. Cc1cc(C)cc(NC(=O)C2CCN(S(=O)(=O)c3cc(-c4noc(C)n4)cs3)CC2)c1 showed an RP-LC retention time of 953 s. COc1ccc(N2CCN(C(=O)c3ccc4c(c3)NC(=O)C3CCCCN43)CC2)cc1 (stereo not given) gave an RP-LC retention time of 756 s. With Cc1sc2ccn(Cc3ccc(F)cc3)c(=O)c2c1C(=O)NCc1cccs1 the RP-LC retention time was 945 s. With CC(=O)N1CCc2sc(S(=O)(=O)NCc3ccc4c(c3)OCO4)cc2C1 the RP-LC retention time was 727 s. With Cc1ccc(-c2cc(C(=O)N3CCN(C4CCN(C)CC4)CC3)n(C)c2)cc1 the RP-LC retention time was 590 s. For COC(=O)C1=CN(c2cccc(C)c2)c2cc(F)ccc2S1(=O)=O, the RP-LC retention time was 911 s. In the case of Cc1cc(C)c(CNC(=O)C2CCN(c3cnc(N4CCSCC4)nc3)CC2)c(C)c1, the RP-LC retention time is reported as 959 s. For COc1ccc(Cl)cc1C(=O)NCC(c1ccsc1)N1CCCC1 (stereo not given), the RP-LC retention time was 582 s. CCC(C)NC(=O)CCn1c(=O)c2ccccc2n2c(=O)n(Cc3cccc(F)c3)nc12 (stereo not given) gave an RP-LC retention time of 816 s. Compound O=C(CN1C(=O)NC2(CCCCC2)C1=O)Nc1ccccc1Cl has an RP-LC retention time of 764 s. In the case of COc1cc(OC)cc(C(=O)Nc2nc(-c3ccc4c(c3)NC(=O)CO4)cs2)c1, the RP-LC retention time is reported as 897 s. With COc1ccc(NC(=O)C2CCN(c3cc(N4CCCC4)ncn3)CC2)cc1Cl the RP-LC retention time was 677 s. In the case of Cc1nc2cccnc2n1C1CCN(C(=O)Nc2ccc3c(c2)OCO3)CC1, the RP-LC retention time is reported as 613 s. With CC1=C(c2ccc(Cl)cc2)S(=O)(=O)N=C1N1CCCN(C(=O)NC(C)C)CC1 the RP-LC retention time was 780 s. Work on O=C([C@@H]1C[C@H](F)CN1S(=O)(=O)c1cccc(F)c1)N1CCOCC1 yielded an RP-LC retention time of 676 s. For O=C(c1cc(-c2ccco2)on1)N1CCC(Oc2nc3ccccc3s2)CC1, the RP-LC retention time was 1030 s. Compound Cc1c(C(=O)O)nnn1-c1ccc2c(c1)OCO2 has an RP-LC retention time of 639 s. With CC(C(=O)N1CCN(c2ccccn2)CC1)n1c(=O)c(C(F)(F)F)nc2ccccc21 (stereo not given) the RP-LC retention time was 696 s. In the case of CCCNC(=O)c1ncn2c1C(=O)N(C1CC1)C(C)(C(=O)NCc1cccc(C)c1)C2 (stereo not given), the RP-LC retention time is reported as 717 s. Compound Cc1nc(-c2cnccn2)nc2c1CCC(=O)N2Cc1ccccc1F has an RP-LC retention time of 726 s. Work on CC(COc1ccc(C(C)C)cc1)NC(=O)c1cccs1 (stereo not given) yielded an RP-LC retention time of 998 s. O=C(C1CC1)N1CCc2sc(S(=O)(=O)Nc3ccc(N4CCOCC4)cc3)cc2C1 showed an RP-LC retention time of 743 s. Compound Cc1cc(C)c(C(=O)N2CCC(CC(=O)NC(c3cccs3)C(C)C)CC2)[nH]1 (stereo not given) has an RP-LC retention time of 863 s. Work on CC1=C(C(=O)OCCc2ccccc2)C(c2ccc(F)cc2)NC(=O)N1 (stereo not given) yielded an RP-LC retention time of 862 s. Compound COc1ccc(OCc2nc(CCN(C)C(=O)c3cc(OC)cc(OC)c3)no2)cc1 has an RP-LC retention time of 810 s. With O=C(CN1C(=O)COc2ccc(C(=O)N3CCN(c4ccc(F)cc4)CC3)cc21)N1CCCC1 the RP-LC retention time was 736 s. Compound CCn1c(SCC(=O)N2CCC(C(N)=O)CC2)nnc1-c1sc2ncccc2c1N has an RP-LC retention time of 603 s.

Source: the METLIN SMRT retention time set (Domingo-Almenara et al. 2019)
